Reference: patent US20080306076A1, “MODULATION OF CHEMOSENSORY RECEPTORS AND LIGANDS ASSOCIATED THEREWITH” (SENOMYX, INC., priority 2007, published 2008)

Columns and labels:
hT1R1/hT1R3 = molecular target: T1, hT1R1/hT1R3 (Homo sapiens, UniProt Q7RTX1); test: In vitro hT1R1/hT1R3 enhancement assay (FLIPR): shift of the monosodium glutamate EC50 (EC50R); assay type: cell-based; settings: EC50 of monosodium glutamate without / with test compound
T1 construct: expressed in transfected cells; host or cells: HEK293 derivative stably expressing Gα15, clone I-17, mifepristone-induced
T1 sequence (Q7RTX1 21-841): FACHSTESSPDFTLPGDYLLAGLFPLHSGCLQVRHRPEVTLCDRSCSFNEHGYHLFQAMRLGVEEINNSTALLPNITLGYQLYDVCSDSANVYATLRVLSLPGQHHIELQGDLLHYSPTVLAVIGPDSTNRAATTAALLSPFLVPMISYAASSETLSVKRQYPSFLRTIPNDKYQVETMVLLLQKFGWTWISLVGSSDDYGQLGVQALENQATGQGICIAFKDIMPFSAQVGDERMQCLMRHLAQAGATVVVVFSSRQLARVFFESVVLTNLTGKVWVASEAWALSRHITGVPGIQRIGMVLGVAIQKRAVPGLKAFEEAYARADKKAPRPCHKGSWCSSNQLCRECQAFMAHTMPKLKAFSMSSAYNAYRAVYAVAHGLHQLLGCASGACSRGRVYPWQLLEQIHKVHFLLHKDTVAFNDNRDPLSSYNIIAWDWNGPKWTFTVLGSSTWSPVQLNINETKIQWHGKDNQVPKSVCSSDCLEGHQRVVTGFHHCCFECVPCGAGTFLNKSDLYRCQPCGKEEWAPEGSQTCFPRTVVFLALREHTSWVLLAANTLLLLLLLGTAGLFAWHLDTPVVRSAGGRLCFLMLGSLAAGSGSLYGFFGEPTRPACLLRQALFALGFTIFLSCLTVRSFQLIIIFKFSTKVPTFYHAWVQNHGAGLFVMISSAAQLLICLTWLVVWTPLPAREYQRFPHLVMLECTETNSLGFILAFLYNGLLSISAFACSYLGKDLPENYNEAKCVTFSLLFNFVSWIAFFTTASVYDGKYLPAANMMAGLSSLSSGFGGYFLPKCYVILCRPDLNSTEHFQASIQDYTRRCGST
T1 sequence (Q7RTX0 21-852 partner): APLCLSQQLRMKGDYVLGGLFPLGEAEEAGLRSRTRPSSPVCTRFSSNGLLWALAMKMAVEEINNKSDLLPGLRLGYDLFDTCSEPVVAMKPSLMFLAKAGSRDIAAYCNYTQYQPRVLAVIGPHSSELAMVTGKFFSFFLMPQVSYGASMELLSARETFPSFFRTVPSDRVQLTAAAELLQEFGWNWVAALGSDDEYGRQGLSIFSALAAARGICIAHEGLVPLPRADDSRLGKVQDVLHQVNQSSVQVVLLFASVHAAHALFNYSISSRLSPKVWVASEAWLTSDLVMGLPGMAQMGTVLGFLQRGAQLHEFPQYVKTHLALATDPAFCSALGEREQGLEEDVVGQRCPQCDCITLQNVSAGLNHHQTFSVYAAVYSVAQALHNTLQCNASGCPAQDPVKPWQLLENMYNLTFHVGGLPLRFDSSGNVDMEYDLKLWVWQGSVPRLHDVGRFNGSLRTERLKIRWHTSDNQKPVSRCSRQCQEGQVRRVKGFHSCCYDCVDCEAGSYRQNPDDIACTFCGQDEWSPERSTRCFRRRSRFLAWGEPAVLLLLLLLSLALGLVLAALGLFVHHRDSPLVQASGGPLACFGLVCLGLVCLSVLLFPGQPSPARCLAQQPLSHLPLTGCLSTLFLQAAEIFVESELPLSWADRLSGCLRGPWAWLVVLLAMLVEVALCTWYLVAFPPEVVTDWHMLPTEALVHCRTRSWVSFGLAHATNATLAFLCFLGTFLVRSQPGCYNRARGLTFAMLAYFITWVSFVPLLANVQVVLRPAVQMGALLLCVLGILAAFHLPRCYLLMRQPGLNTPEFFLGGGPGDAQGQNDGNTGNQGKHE
Description: An HEK293 cell line derivative (See e.g., Chandrashekar, et al., Cell (2000) 100: 703-711) which stably expresses Gα15 and hT1R1/hT1R3 under an inducible promoter (see e.g., International Publication No. WO 03/001876 A2) was used in association with identifying compounds with umami tasting properties.
Compounds were initially selected based on activity in the hT1R1/hT1R3-HEK293-Gα15 cell line. Activity was determined using an automated fluorometric imaging assay on a FLIPR instrument (Fluorometric Intensity Plate Reader, Molecular Devices, Sunnyvale, Calif.) (designated FLIPR assay). Cells from one clone (designated clone I-17) were seeded into 384-well plates (at approximately 48,000 cells per well) in a medium containing Dulbecco's modified Eagle's medium (DMEM) supplemented with GlutaMAX (Invitrogen, Carlsbad, Calif.), 10% dialyzed fetal bovine serum (Invitrogen, Carlsbad, Calif.), 100 Units/ml Penicillin G, 100 μg/ml Streptomycin (Invitrogen, Carlsbad, Calif.) and 60 pM mifepristone (to induce expression of hT1R1/hT1R3 (see e.g., International Publication No. WO 03/001876 A2).
I-17 cells were grown for 48 hours at 37° C. 1-17 cells were then loaded with the calcium dye Fluo-3AM (Molecular Probes, Eugene, Oreg.), 4 μM in a phosphate buffered saline (D-PBS) (Invitrogen, Carlsbad, Calif.), for 1.5 hours at room temperature. After replacement with 25 μl D-PBS, stimulation was performed in the FLIPR instrument and at room temperature by the addition of 25 μl D-PBS supplemented with different stimuli at concentrations corresponding to twice the desired final level.
Receptor activity was quantified by determining the maximal fluorescence increases (using a 480 nm excitation and 535 nm emission) after normalization to basal fluorescence intensity measured before stimulation. For dose-responses analysis, stimuli were presented in duplicates at 10 different concentrations ranging from 1.5 nM to 3 μM.
Activities were normalized to the response obtained with 60 mM monosodium glutamate, a concentration that elicits maximum receptor response. EC50s (concentration of compound that causes 50% activation of receptor) were determined using a non-linear regression algorithm, where the Hill slope, bottom asymptotes and top asymptotes were allow to vary. Identical results were obtained when analyzing the dose-response data using commercially available software for non-linear regression analysis such as GraphPad PRISM (San Diego, Calif.).
Experiments were also conducted to determine if test compounds can enhance the effect of monosodium glutamate on hT1R1/hT1R3 activity. In this assay, increasing concentrations of monosodium glutamate (ranging from 12 μM to 81 mM) were presented, in duplicates, in the presence or absence of a fixed concentration of the test compound. Typical compound concentrations tested were 100 μM, 30 μM, 10 μM, 3 μM, 1 μM, 0.3 μM, 0.1 μM and 0.03 μM. The relative efficacy of compounds at enhancing the receptor was determined by the calculating the magnitude of a shift in the EC50 for monosodium glutamate.
Enhancement was defined as a ratio (EC50R) corresponding to the EC50 of monosodium glutamate, determined in the absence of the test compound, divided by the EC50 of monosodium glutamate, determined in the presence of the test compound. In some embodiments, compounds have an EC50R between about 0.7 and about 100. In other embodiments, compounds have an EC50R between about 1.25 and about 75. In still other embodiments, compounds have an EC50R between about 1.50 and about 60. Assay results for compounds are disclosed in the table below.

un-induced I-17 cells = test: FLIPR assay on un-induced I-17 cells (no receptor expression); assay type: cell-based; settings: monosodium glutamate
Description: In order to determine the dependency of hT1R1/hT1R3 for the cell response to different stimuli, selected compounds were subjected to a similar analysis on I-17 cells that had not been induced for receptor expression with mifepristone (designated as un-induced I-17 cells). […] Compounds were presented to un-induced umami cells at […]—or three times the maximum stimulation used in the dose-response analysis.

Compound `COc1ccccc1C(=O)Nc1nc(O)c2ncn([C@@H]3O[C@H](COP(=O)(O)O)[C@@H](O)[C@H]3O)c2n1` [Compound 1] has an EC50 ratio (hT1R1/hT1R3; test compound 30 μM) of 1.67 and an EC50 ratio (hT1R1/hT1R3; test compound 100 μM) of 12.91.

`Cc1cccc(C(=O)Nc2nc(O)c3ncn([C@@H]4O[C@H](COP(=O)(O)O)[C@@H](O)[C@H]4O)c3n2)c1` [Compound 4] gave an EC50 ratio (hT1R1/hT1R3; test compound 30 μM) of 1.07 and an EC50 ratio (hT1R1/hT1R3; test compound 100 μM) of 1.19.

With `O=C(COc1ccccc1)Nc1nc(O)c2ncn([C@@H]3O[C@H](COP(=O)(O)O)[C@@H](O)[C@H]3O)c2n1` [Compound 5] the EC50 ratio (hT1R1/hT1R3; test compound 30 μM) was 1.21 and the EC50 ratio (hT1R1/hT1R3; test compound 100 μM) was 2.22.

In the case of `N[C@@H](CCC(=O)O)C(=O)[O-].[Na+]` [monosodium glutamate], the “functional response in FLIPR assay” value (un-induced I-17 cells) is reported as “do not show any functional response”.
